From US20160339094A1, “BACTERIAL INFLUENCE OF HOST FEEDING AND EMOTION VIA CLPB PROTEIN MIMICRY OF A-MSH” (priority 2013, published 2016)

Experiments:
[1] = test system: C57B16 mice; assay: ClpB immunization in mice: body weight, food intake and feeding pattern (BioDAQ cages); assay type: in vivo
Protocol: Animal care and experimentation were in accordance with guidelines established by the National Institutes of Health, USA and complied with both French and European Community regulations (Official Journal of the European Community L 358, 18 Dec. 1986). Two month-old male C57B16 mice (Janvier Labs L'Arbresle, France) were acclimated to the animal facility for with 12 h light-dark cycle, lights on at 7:00 a.m. and were kept in standard mouse holding cages (n=8) in each. Mice were fed ad libitum with standard pelleted rodent chow (RM1 diet, SDS, UK) with drinking water always available and were manipulated daily by gentle holding and measuring body weight. During acclimatization mice were distributed between four cages to obtain the similar mean body weight per mouse per cage. After one week of acclimatization, mice from each cage were assigned to one of four study group and received following treatments: i) Group 1, ClpB immunization (n=8): ClpB protein (Delphi Genetics) 50 μg/mouse in 200 μl of 1:1 vol. of PBS with Complete Freund's Adjuvant (CFA, Sigma), intraperitoneally (I.P.); ii) Group 2, adjuvant injection controls (n=8): 200 μl of CFA in PBS (1:1 vol., I.P.); iii) Group 3, PBS injection controls (n=8): 200 μl of PBS (I.P.) and iiii) Group 4, Intact controls (n=8): received no injections, and then all mice were returned to their holding cages. Fifteen days later, mice were given a boost immunization and the following treatments: i) Group 1 (n=8), ClpB protein (Delphi Genetics) 50 μg/mouse in 200 μl of 1:1 vol. of PBS with Incomplete Freund's Adjuvant (IFA, Sigma) I.P.; ii) Group 2 (n=8): 200 ═l of IFA in PBS (1:1 vol., I.P.); iii) Group 3, (n=8): 200 ═l of PBS (I.P.) and iiii) Group 4, (n=8): received no injections.
Next day after the boost, mice were placed individually in the BioDAQ mouse cages (Research Diets, Inc., New Brunswick, N.J.) each equipped with an automatic feeding monitor. Food (SERLAB, Montataire France) and drinking water were available ad libitum and body weight was measured daily. After three days of acclimation to the BioDAQ cages, mice received the following treatments: Groups 1, 2 and 3 (each n=8) i.e. mice which have been immunized with ClpB; injected with adjuvants and with PBS, respectively, […] PBS (I.P.) at 10 a.m. The control mice (n=8) received PBS only (I.P.). Feeding data was continuously monitored and analysed using the BioDAQ data viewer 2.3.07 (Research Diets). For the meal pattern analysis, the inter-meal interval was set at 300 sec.

[2] = test system: C57B16 mice; assay: ClpB immunization in mice: plasma ClpB-, α-MSH- and ACTH-reactive autoantibody ELISA; assay type: in vivo
Protocol: Two month-old male C57B16 mice (Janvier Labs L'Arbresle, France) were acclimated to the animal facility for with 12 h light-dark cycle, lights on at 7:00 a.m. and were kept in standard mouse holding cages (n=8) in each. […] During acclimatization mice were distributed between four cages to obtain the similar mean body weight per mouse per cage. After one week of acclimatization, mice from each cage were assigned to one of four study group and received following treatments: i) Group 1, ClpB immunization (n=8): ClpB protein (Delphi Genetics) 50 μg/mouse in 200 μl of 1:1 vol. of PBS with Complete Freund's Adjuvant (CFA, Sigma), intraperitoneally (I.P.); ii) Group 2, adjuvant injection controls (n=8): 200 μl of CFA in PBS (1:1 vol., I.P.); iii) Group 3, PBS injection controls (n=8): 200 μl of PBS (I.P.) and iiii) Group 4, Intact controls (n=8): received no injections, and then all mice were returned to their holding cages. Fifteen days later, mice were given a boost immunization and the following treatments: i) Group 1 (n=8), ClpB protein (Delphi Genetics) 50 μg/mouse in 200 μl of 1:1 vol. of PBS with Incomplete Freund's Adjuvant (IFA, Sigma) I.P.; ii) Group 2 (n=8): 200 ═l of IFA in PBS (1:1 vol., I.P.); iii) Group 3, (n=8): 200 ═l of PBS (I.P.) and iiii) Group 4, (n=8): received no injections.
Two hours after the O-maze test, mice were killed by decapitation in a guillotine and trunk blood was collected into EDTA-containing tubes. Plasma was separated by centrifugation at 3,500 r.p.m. (1.4 g) for 10 min at 4° C. and stored at −80° C. before assay.
Plates were washed (5 min×3) in phosphate-buffered saline (PBS) with 0.05% Tween 200, pH 7.4, and then incubated overnight at 4° C. with 100 μl of mouse or rat plasma diluted 1:200 in PBS to determine free autoAbs levels or diluted 1:200 in dissociative 3 M NaCl, 1.5 M glycine buffer, pH 8.9 to determine total autoAbs levels. The plates were washed (3×) and incubated with 100 μl of alkaline phosphatase (AP)-conjugated goat anti-rat IgG (1:2000), anti-rat IgM (1:1000), anti-mouse IgG (1:2000), or anti-mouse IgM (1:1000) all from Jackson ImmunoResearch Laboratories, Inc. (West Grove, Pa.). Following washing (3×), 100 μl of p-nitrophenyl phosphate solution (Sigma) was added as alkaline phosphatase substrate. After 40 min of incubation at room temperature, the reaction was stopped by adding 3N NaOH. The OD was determined at 405 nm using a microplate reader Metertech 960 (Metertech Inc., Taipei, Taiwan). Blank OD values resulting from the reading of plates without addition of plasma samples were subtracted from the sample OD values. Each determination was done in duplicate. The variation between duplicate values was less than 5%.

[3] = molecular target: α-MSH (Homo sapiens, UniProt P01189); details: IgG of ClpB immunized mice vs controls; SPR
Protocol: (§1) Extraction of plasma globulins was done by plasma acidification and separation on C-18 SEP column (Phoenix Pharmaceuticals, Burlingame, Calif.) according to the manufacturer instructions. In detail, 500 μl of mouse or rat plasma was mixed with 500 μl of buffer A (1% trifluoroacetic acid TFA in water). The column was activated in 1 ml of buffer B (60% acetonitrile in 1% TFA) by 3 min centrifugation with 700 rpm and rinsed 3 times with 3 ml of buffer A. Diluted plasma (1:1 in buffer A) was added to the column and the effluent (1 ml) was saved (frozen at −20° C.) for further purification of IgG. Total IgG were purified from the effluents of rat plasma samples using the Melon Gel Kit (Thermo Fisher Scientific, Rockford, Ill.) according to the manufacturer instructions. In brief, plasma effluents diluted 1:4 in kit's purification buffer was added on washed melon gel deposited in a column. Column was spinned 1 min at 6,000 r.p.m. and the IgG containing effluent was saved and frozen at −20° C. before lyophilization. Lyophilized IgG were reconstituted in the HBS-EP buffer (GE Healthcare, Piscataway, N.J.).
(§2) For the affinity kinetic analysis, a multi-cycle method was run with five serial dilutions of each IgG sample: 3360, 1680, 840, 420 and 210 (nmol) including a duplicate of 840 nmol and a blank sample (HBS-EP buffer only).

[4] = molecular target: ClpB (Escherichia coli, UniProt P63284); details: plasma extracted IgG of ClpB immunized mice vs other groups; SPR
Protocol: as §1, §2

[5] = test system: polyclonal rabbit anti-α-MSH antisera
Protocol: Following 2D-PAGE, E. coli cytoplasmic proteins were transferred onto Hybond-ECL PVDF membrane (GE Healthcare) by using a dry transfer method (Trans Blot Cell, Biorad, USA) and a constant current of 0.8 mA/cm^2 of the membrane size for 2 h. After transfer, membranes were blocked with 5% (wt:v) milk (Regilait, France) in phosphate buffered saline (PBS; 10 mmol/L […], pH 8; 150 mmol/L NaCl) plus 0.05% (v:v) Tween 20.
The recombinant ClpB protein was customly produced by Delphi Genetics SA, (Gosselies, Belgium) in bacterial cultures by the ClpB cDNA synthesis and cloning into an expression vector.

[6] = test system: C57B16 mice; assay: Locomotor activity and anxiety tests (open field, elevated O-maze) in immunized mice; assay type: in vivo
Protocol: After the feeding study, mice were placed in individual mouse holding cages with food and water available ad libitum and were analyzed for locomotor activity and anxiety in O-maze tests performed during two consecutive days. Two hours after the O-maze test, mice were killed by decapitation in a guillotine and trunk blood was collected into EDTA-containing tubes. Plasma was separated by centrifugation at 3,500 r.p.m. ([…]) for 10 min at 4° C. and stored at −80° C. before assay.
After feeding study in the BioDAQ cages, mice were analyzed for locomotor activity using a Versamax Animal Activity Monitor (AccuScan Instruments, Inc., Columbus, Ohio). Next day after the locomotor activity test all mice were tested for their anxiety in an elevated-O-maze. The elevated-O-maze is a variation of more commonly used elevated-plus-maze pharmacologically validated for anxiety testing in rodents (Crawley, J. N. and Bailey, K. R., Methods of behavior analysis in neuroscience, 77-101 (CRC Press, 2009)). The advantage of the O-maze is that it lacks the ambiguous central square of the traditional plus-maze. The O-maze (Med Associate, Inc., St. Albans, Vt.) consisted of a circular infrared platform (outer diameter 120 cm) elevated 80 cm above the floor, featuring two open and two closed segments made of grey plastic. The closed segments were enclosed by walls extending 20 cm above the surface of the maze and covered with a black infrared Plexiglas lid. Each test started by placing the mouse into one of the two closed segments. The test lasted 5 min and was recorded using a video-camera placed above the O-maze and the EthoVision video tracking software (Noldus IT, Wageningen, The Netherlands). Measurements of distance and time spent in the open and closed segments were analyzed. Between each mouse tests, the O-maze was cleaned with a 30% alcohol.

[7] = day 22, single injection of α-MSH 100 μg/kg body weight, I.P., non-immunized vs ClpB-immunized vs controls

Sequence of ClpB (P63284 whole entry): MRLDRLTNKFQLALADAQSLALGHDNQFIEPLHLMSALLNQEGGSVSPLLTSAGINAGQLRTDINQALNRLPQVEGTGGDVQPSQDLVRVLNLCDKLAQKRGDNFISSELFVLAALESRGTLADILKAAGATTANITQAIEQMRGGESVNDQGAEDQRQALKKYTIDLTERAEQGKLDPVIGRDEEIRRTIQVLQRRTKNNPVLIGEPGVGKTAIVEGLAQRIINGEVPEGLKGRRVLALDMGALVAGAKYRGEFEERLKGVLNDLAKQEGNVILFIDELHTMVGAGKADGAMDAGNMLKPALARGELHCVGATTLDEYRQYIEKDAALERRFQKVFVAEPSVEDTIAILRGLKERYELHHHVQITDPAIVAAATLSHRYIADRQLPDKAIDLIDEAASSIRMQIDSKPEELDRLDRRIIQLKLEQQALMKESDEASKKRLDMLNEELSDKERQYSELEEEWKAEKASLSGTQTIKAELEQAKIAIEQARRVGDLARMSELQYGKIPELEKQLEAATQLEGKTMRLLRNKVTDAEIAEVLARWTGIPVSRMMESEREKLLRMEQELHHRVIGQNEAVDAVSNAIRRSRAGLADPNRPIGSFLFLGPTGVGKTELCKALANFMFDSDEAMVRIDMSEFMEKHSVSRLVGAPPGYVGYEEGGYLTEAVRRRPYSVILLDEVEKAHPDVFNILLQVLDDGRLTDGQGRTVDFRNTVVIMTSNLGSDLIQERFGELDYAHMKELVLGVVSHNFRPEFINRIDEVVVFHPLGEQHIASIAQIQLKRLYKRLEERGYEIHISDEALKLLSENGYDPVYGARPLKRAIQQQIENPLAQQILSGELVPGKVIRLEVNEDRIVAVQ

ClpB: recombinant 857 amino acid chaperone protein ClpB of E. coli K12 (SEQ ID NO: 1), injected I.P. with Freund's adjuvant for immunization
meal number ([1]; BioDAQ): did not change | meal size ([1]; BioDAQ, last 10 days): increased meal size | higher mean daily food intake as compared to other groups ([1]; BioDAQ, last 10 days of the experiment): 13% | body weight for few days after injections ([1]; ClpB and CFA, I.P., expected inflammatory response to immunization): lower body weight | higher body weight vs. controls at the end of the experiment ([1]; ClpB immunized mice, 32 days study): 5% | 24 h food intake following α-MSH injection [1, 7]: did not differ from controls | body weight 24 h following α-MSH injection [1, 7]: did not differ from controls | plasma levels of α-MSH-reactive IgG ([2]; ClpB immunized mice): Increased plasma levels | plasma levels of ClpB IgG ([2]; ClpB immunized mice vs other groups (adjuvant, PBS, controls)): higher plasma levels | plasma ACTH-reactive IgG ([2]; among the groups): No significant differences | plasma levels of α-MSH IgM autoAbs ([2]; between the groups): did not significantly differ | affinity of IgG for α-MSH [3]: lower affinities for α-MSH | affinity of anti-ClpB IgG for ClpB [4]: lower affinities | Western blot detection by anti-α-MSH antiserum after trypsin digestion ([5]; ClpB digested by trypsin): No band was detected | Western blot detection by anti-α-MSH antiserum ([5]; intact recombinant ClpB): single 96 kDa band | parameters in the O-maze open arms ([6]; ClpB group): did not significantly change | time spent in the closed arms of the O-maze ([6]; ClpB-immunized mice vs all other groups): less time | distance moved in the closed arms of the O-maze ([6]; ClpB-immunized mice vs controls): shorter distance | time spent in the open vs. border areas ([6]; open field, among the groups): did not significantly differ | total locomotor activity ([6]; open field, among the groups): did not significantly differ
